Source: the supplement of paper PMC5908809

Assays:
[1] = system: normal NK cells expanded with K562-aAPC; assay: percent inhibition of viability; higher = more inhibition; conditions: 72 h, IL-2 2.5 ng/mL
Method: (§1)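 Drug sensitivity and resistance testing on K562-aAPC-expanded normal NK cells: 5 concentrations (10-fold steps over a 10,000-fold range), 72 h at 37 °C, viability by CellTiter-Glo normalised to DMSO and benzethonium chloride controls; DSS from the fitted curve.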

DERL-7 (IL-2 2.5 ng/mL) [2] = assay: as above; conditions: 72 h
IMC-1 (IL-2 20 ng/mL) [3] = assay: as above; conditions: 72 h
KAI3 (IL-2 2.5 ng/mL) [4] = assay: as above; conditions: 72 h
KHYG-1 (IL-2 2.5 ng/mL) [5] = assay: as above; conditions: 72 h
NK-92 (IL-2 2.5 ng/mL) [6] = assay: as above; conditions: 72 h
NK-YS (IL-2 2.5 ng/mL) [7] = assay: as above; conditions: 72 h
NKL (IL-2 2.5 ng/mL) [8] = assay: as above; conditions: 72 h
SNK-6 (IL-2 2.5 ng/mL) [9] = assay: as above; conditions: 72 h
YT (IL-2 2.5 ng/mL) [10] = assay: as above; conditions: 72 h
[11] = system: normal primary NK cells, pool 1 (3 donors) (IL-2 2.5 ng/mL); assay: as above; conditions: 72 h
[12] = system: normal primary NK cells, pool 1 (3 donors), resting (IL-2 0 ng/mL); assay: as above; conditions: 72 h
[13] = system: normal primary NK cells, pool 2 (3 donors) (IL-2 2.5 ng/mL); assay: as above; conditions: 72 h
[14] = system: normal primary NK cells, pool 3 (3 donors) (IL-2 2.5 ng/mL); assay: as above; conditions: 72 h
[15] = system: normal NK cells expanded with K562-aAPC; assay: drug sensitivity score (DSS) (DSS units); higher = more sensitive; extreme values may be limits of the assay; conditions: 72 h; IL-2 2.5 ng/mL
Method: as §1

DERL-7 (IL-2 2.5 ng/mL) [16] = assay: as above; conditions: 72 h
IMC-1 (IL-2 20 ng/mL) [17] = assay: as above; conditions: 72 h
KAI3 (IL-2 2.5 ng/mL) [18] = assay: as above; conditions: 72 h
KHYG-1 (IL-2 2.5 ng/mL) [19] = assay: as above; conditions: 72 h
NK-92 (IL-2 2.5 ng/mL) [20] = assay: as above; conditions: 72 h
NK-YS (IL-2 2.5 ng/mL) [21] = assay: as above; conditions: 72 h
NKL (IL-2 2.5 ng/mL) [22] = assay: as above; conditions: 72 h
SNK-6 (IL-2 2.5 ng/mL) [23] = assay: as above; conditions: 72 h
YT (IL-2 2.5 ng/mL) [24] = assay: as above; conditions: 72 h
[25] = system: normal primary NK cells, pool 1 (3 donors) (IL-2 2.5 ng/mL); assay: as above; conditions: 72 h
[26] = system: normal primary NK cells, pool 1 (3 donors), resting (IL-2 0 ng/mL); assay: as above; conditions: 72 h
[27] = system: normal primary NK cells, pool 2 (3 donors) (IL-2 2.5 ng/mL); assay: as above; conditions: 72 h
[28] = system: normal primary NK cells, pool 3 (3 donors) (IL-2 2.5 ng/mL); assay: as above; conditions: 72 h

O=C(O)c1ccc(O)c2ncccc12 [IOX-1] (max concentration tested 100000 nM)
percent inhibition of viability [%]
Conditions	10 nM	100 nM	1000 nM	10000 nM	100000 nM
DERL-7 (IL-2 2.5 ng/mL) [2]	3.2	6.07	1.59	7.49	60.9
IMC-1 (IL-2 20 ng/mL) [3]	-3.09	-5.78	-3.15	-12.9	98.3
KAI3 (IL-2 2.5 ng/mL) [4]	-3.64	-1.76	6.25	18.8	90.3
KHYG-1 (IL-2 2.5 ng/mL) [5]	-4.24	1.11	-3.63	4.25	97.2
NK-92 (IL-2 2.5 ng/mL) [6]	-6.93	3.17	-9.38	5.58	84.7
NK-YS (IL-2 2.5 ng/mL) [7]	-2.09	1.71	-3.7	-0.87	90
NKL (IL-2 2.5 ng/mL) [8]	1.44	-6.7	-0.16	3.16	91.7
SNK-6 (IL-2 2.5 ng/mL) [9]	5.81	6.03	15.1	13.8	96.1
YT (IL-2 2.5 ng/mL) [10]	-3.65	-2.89	-3.48	-1.62	93.9
[1]	2.28	-1.61	-3.75	-2.77	37.3
[11]	-3.62	-13.1	0.64	8.14	36.8
[12]	-3.86	-11	-13.3	21.7	44.1
[13]	-7.65	2.85	-9.5	-2.84	18.6
[14]	-7.55	-4.61	-5.18	1.2	19.5

Conditions	drug sensitivity score
DERL-7 (IL-2 2.5 ng/mL) [16]	4.57
IMC-1 (IL-2 20 ng/mL) [17]	4.66
KAI3 (IL-2 2.5 ng/mL) [18]	8.02
KHYG-1 (IL-2 2.5 ng/mL) [19]	5.99
NK-92 (IL-2 2.5 ng/mL) [20]	5.53
NK-YS (IL-2 2.5 ng/mL) [21]	4.95
NKL (IL-2 2.5 ng/mL) [22]	5.52
SNK-6 (IL-2 2.5 ng/mL) [23]	7.64
YT (IL-2 2.5 ng/mL) [24]	5.1
[15]	1.59
[25]	3.07
[26]	5.03
[27]	0.36
[28]	0.69

CN1CCN(c2cc(C(=O)Nc3ccc4c(c3)-c3c(c(C(N)=O)nn3-c3ccc(F)cc3)CC4)c(Cl)cn2)CC1 [PHA 408] (max concentration tested 10000 nM)
percent inhibition of viability [%]
Conditions	1 nM	10 nM	100 nM	1000 nM	10000 nM
DERL-7 (IL-2 2.5 ng/mL) [2]	-1.3	0.79	2.16	31.9	101
IMC-1 (IL-2 20 ng/mL) [3]	-8.52	-6.11	-8.53	2.74	99.6
KAI3 (IL-2 2.5 ng/mL) [4]	-0.05	1.36	9.21	50.4	101
KHYG-1 (IL-2 2.5 ng/mL) [5]	-10.4	-8.63	-10.2	-0.31	104
NK-92 (IL-2 2.5 ng/mL) [6]	-21	-16.1	-4.02	12.9	102
NK-YS (IL-2 2.5 ng/mL) [7]	-12.4	-7.83	-4.48	7.91	103
NKL (IL-2 2.5 ng/mL) [8]	-18.1	-8.26	-5.06	22.7	103
SNK-6 (IL-2 2.5 ng/mL) [9]	-17.6	-11.2	0.21	22.9	100
YT (IL-2 2.5 ng/mL) [10]	-7.69	-3.99	-2.06	15.8	104
[1]	-8.15	-10.8	-1.64	16.7	101
[11]	-10.8	-7.07	1.01	6.7	101
[12]	18.8	21.2	14.8	12.5	100
[13]	1.04	-1.49	11.9	13	101
[14]	1.98	1.33	13.2	4.36	101

Conditions	drug sensitivity score
DERL-7 (IL-2 2.5 ng/mL) [16]	10.1
IMC-1 (IL-2 20 ng/mL) [17]	5.9
KAI3 (IL-2 2.5 ng/mL) [18]	11.6
KHYG-1 (IL-2 2.5 ng/mL) [19]	5.88
NK-92 (IL-2 2.5 ng/mL) [20]	7.75
NK-YS (IL-2 2.5 ng/mL) [21]	6.95
NKL (IL-2 2.5 ng/mL) [22]	9.11
SNK-6 (IL-2 2.5 ng/mL) [23]	9.12
YT (IL-2 2.5 ng/mL) [24]	8.22
[15]	8.3
[25]	6.64
[26]	7.64
[27]	7.73
[28]	6.27
